# Source: patent publication US20050228180A1, “Alpha, omega-dicarboximide derivatives as useful uro-selective a1a adrenoceptor blockers” (priority 2002, published 2005)
# Structures can show the parent of a compound that is named as a salt.
# How the values were obtained:
# conscious beagle dogs = experiment: In vivo uroselectivity study: phenylephrine response on MAP and IUP; set-up: species or system dog; settings: 3 μg/kg p.o.
# Description: In order to assess the uroselectivity in vivo, the effects of these compounds were studied on mean arterial pressure (MAP) and intraurethral pressure (UP) in conscious beagle dogs as per the method of Brune et al. (Pharmacol., 1996, 53:356). Briefly, male dogs were instrumented for chronic continuous measurement of arterial blood pressure by implanting a telemetry transmitter (TL11M2-D70-PCT, Data Sci. International, St. Paul, Minn. USA) into the femoral artery, two weeks prior to the study. During the recovery period, the animal was acclimatized to stay in the sling restraint. On the day of testing, overnight fasted animal was placed in the sling restraint. A Swan-Ganz. Balloon tipped catheter was introduced into the urethra at the level of prostate and the balloon was inflated (Brune. et. al. 1996). After recording the base line readings, effect of 16 μg/kg, phenylephrine (i.v.) on MAP and IUP was recorded. The response of phenylephrine to MAP and […] were recorded at 0.5, 1, 2, 3, 4, 6, 9 and 24 hours after the oral administration of vehicle or the test drug. The changes in MAP were recorded on line using Dataquest Software (Data Sci. International, St. Paul, Minn. USA). The change in phenylephrine response on […] administration after the test drug administration was calculated as percent change of that of control values. Area under curve was calculated, and the ratio of the values for MAP and IUP was used for calculating the uroselectivity (Table III).
# [1] = target: T1, α1B adrenoceptor (spleen) (Rattus norvegicus, UniProt P15823); experiment: In vitro functional assay, isolated spleen, phenylepinephrine contraction; format: cell-based; settings: read-out: α Adrenoceptor Subtype (pKB) α1B (converted)
# T1 construct: Isolated tissues were mounted in organ bath containing Krebs Henseleit buffer; from tissue; host or cells: isolated rat spleen
# T1 sequence (P15823 1-515): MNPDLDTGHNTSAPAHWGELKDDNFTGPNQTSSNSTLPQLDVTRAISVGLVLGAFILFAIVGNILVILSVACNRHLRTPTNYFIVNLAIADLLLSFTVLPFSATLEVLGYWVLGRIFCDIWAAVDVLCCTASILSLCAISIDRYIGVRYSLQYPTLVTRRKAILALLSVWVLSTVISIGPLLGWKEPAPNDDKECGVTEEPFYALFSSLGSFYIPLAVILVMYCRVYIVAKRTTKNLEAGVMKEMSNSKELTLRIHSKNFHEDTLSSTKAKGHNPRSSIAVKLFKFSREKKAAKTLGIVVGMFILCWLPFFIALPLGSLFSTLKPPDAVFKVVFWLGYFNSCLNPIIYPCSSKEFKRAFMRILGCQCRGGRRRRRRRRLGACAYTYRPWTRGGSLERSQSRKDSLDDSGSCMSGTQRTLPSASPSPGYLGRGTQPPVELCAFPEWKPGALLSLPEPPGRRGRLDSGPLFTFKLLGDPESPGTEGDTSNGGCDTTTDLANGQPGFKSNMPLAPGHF
# Description: (§1) In order to study selectivity of action of these compounds towards different a-adrenoceptor subtypes, the ability of these compounds to antagonise (α1D) prostate (α1A) and spleen (α1B) was studied. Aorta and spleen tissues were isolated from urethane anaesthetized (1.5 g/kg) male wister rats. Isolated tissues were mounted in organ bath containing Krebs Henseleit buffer of the following composition (mM): NaCl 118; KCl 4.7; CaCl2 2.5; MgSO4 7H2O 1.2; NaHCO3 25; KH2PO4 1.2; glucose 11.5. Buffer was maintained at 37° C. and aereated with a mixture of 95% O2 and 5% CO2. A resting tension of 2 g (aorta) or 1 g (spleen and prostate) was applied to tissues. Contractile response was monitored using a force displacement transducer and recorded on chart recorders. Tissues were allowed to equilibrate for 2 hours. At the end of equilibration period, concentration response curves to norepinephrine (aorta) and phenylepinephrine (spleen and prostate) were obtained in the absence and presence of tested compound (at concentration of […]). Antagonist affinity was calculated and expressed as pKB values in Table II.
# α1B adrenoceptor = target: T2, α1B adrenoceptor (Rattus norvegicus, UniProt P15823); experiment: Radioligand binding, [3H] prazosin displacement, rat liver membranes; settings: read-out: Affinity (Ki) α1B (Rat Liver)
# T2 construct: from tissue; host or cells: rat liver membranes
# T2 sequence (P15823 1-515): T1 sequence (P15823 1-515)
# How it was run: (§2)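 Rat membranes (submaxillary for α1A, liver for α1B; 150-250 μg protein) incubated with [3H]prazosin and compound in Tris 50 mM/EDTA 5 mM pH 7.4, 1 h at 24-25° C. Nonspecific binding with 300 nM prazosin; filtration, counting; Ki via Cheng–Prusoff.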
# α1D adrenoceptor (aorta) = target: T3, α1D adrenoceptor (aorta) (Rattus norvegicus, UniProt P23944); experiment: In vitro functional assay, isolated aorta, norepinephrine contraction; format: cell-based; settings: read-out: α Adrenoceptor Subtype (pKB) α1D (converted)
# T3 construct: Isolated tissues were mounted in organ bath containing Krebs Henseleit buffer; from tissue; host or cells: isolated rat aorta
# T3 sequence (P23944 1-561): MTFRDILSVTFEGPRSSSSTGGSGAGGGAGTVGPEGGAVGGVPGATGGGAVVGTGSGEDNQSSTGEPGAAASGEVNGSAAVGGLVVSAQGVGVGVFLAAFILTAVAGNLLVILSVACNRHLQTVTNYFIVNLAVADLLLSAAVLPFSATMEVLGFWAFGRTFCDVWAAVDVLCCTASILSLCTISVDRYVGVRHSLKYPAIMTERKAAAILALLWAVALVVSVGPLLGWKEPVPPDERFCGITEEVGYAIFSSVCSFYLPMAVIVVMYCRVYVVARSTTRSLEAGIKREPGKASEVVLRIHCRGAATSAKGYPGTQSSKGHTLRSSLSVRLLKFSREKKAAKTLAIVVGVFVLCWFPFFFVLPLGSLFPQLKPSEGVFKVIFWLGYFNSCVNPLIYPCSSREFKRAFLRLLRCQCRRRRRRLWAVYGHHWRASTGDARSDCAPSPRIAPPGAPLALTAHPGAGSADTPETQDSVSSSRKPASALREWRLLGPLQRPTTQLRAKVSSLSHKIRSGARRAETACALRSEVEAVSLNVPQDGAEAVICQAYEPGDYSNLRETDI
# Description: as §1
# α1A adrenoceptor = target: T4, α1A adrenoceptor (Rattus norvegicus, UniProt P43140); experiment: Radioligand binding, [3H] prazosin displacement, rat submaxillary membranes; settings: for Ki: [3H] prazosin displacement, rat submaxillary membranes, read-out: Affinity (Ki) α1A (Rat Submaxillary); for α1B/α1A: ratio of binding affinities, rat liver / rat submaxillary
# T4 construct: from tissue; host or cells: rat submaxillary gland membranes
# T4 sequence (P43140 1-466): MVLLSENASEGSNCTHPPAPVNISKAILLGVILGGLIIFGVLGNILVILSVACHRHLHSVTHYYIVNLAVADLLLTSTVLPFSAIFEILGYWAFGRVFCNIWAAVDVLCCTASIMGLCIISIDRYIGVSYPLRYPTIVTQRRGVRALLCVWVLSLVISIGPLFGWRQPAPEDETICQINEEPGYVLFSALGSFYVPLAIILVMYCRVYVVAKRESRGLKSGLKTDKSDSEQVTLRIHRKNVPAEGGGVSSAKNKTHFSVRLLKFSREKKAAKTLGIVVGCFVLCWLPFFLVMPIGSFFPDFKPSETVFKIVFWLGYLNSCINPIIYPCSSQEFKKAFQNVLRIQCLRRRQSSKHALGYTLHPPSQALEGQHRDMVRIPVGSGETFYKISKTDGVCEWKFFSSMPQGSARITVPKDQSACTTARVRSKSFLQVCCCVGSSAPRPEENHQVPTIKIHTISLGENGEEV
# How it was run: as §2
# [2] = target: T5, α1A adrenoceptor (prostate) (Rattus norvegicus, UniProt P43140); experiment: In vitro functional assay, isolated prostate, phenylepinephrine contraction; format: cell-based; settings: for Selectivity α1B/α1A / Selectivity α1D/α1A: functional, from pKB; for Kb: rat prostate, phenylepinephrine, read-out: α Adrenoceptor Subtype (pKB) α1A (converted)
# T5 construct: from tissue; host or cells: isolated prostate tissue
# T5 sequence (P43140 1-466): T4 sequence (P43140 1-466)
# Description: as §1
# [3] = percent change of phenylephrine response over 24 hours
SMILES,Kb [1] [nM],Ki (α1B adrenoceptor) [nM],Kb (α1D adrenoceptor (aorta)) [nM],Ki (α1A adrenoceptor) [nM],α1B/α1A (α1A adrenoceptor),Selectivity α1B/α1A [2],Selectivity α1D/α1A [2],Kb [2] [nM],melting point [°C],Uroselectivity Ratio IUP/MAP (conscious beagle dogs),Area Under Curve IUP (conscious beagle dogs; [3]),Area Under Curve MAP (conscious beagle dogs; [3])
"CC(=O)OC1C=CCC2C(=O)N(CCCN3CCN(c4ccccc4OC(C)C)CC3)C(=O)C12 (centres unmarked) (as salt: hydrochloride) [Compound No. 40, 2-[3-{4-(2-Isopropoxyphenyl)piperazin-1-yllpropyl]4-acetoxy-3a,4,7,7a-tetrahydro-1H-isoindole-1,3(2H)-dione hydrochloride]",,,,,,,,,224 to 227,,,
"CCOc1ccccc1OCCN[C@H](C)Cc1ccc(OC)c(S(N)(=O)=O)c1 (racemic) [Tamsulosin (SR), Tamsulosin, reference compound]",,,,,,,,,,1.47,592,868
"CC(=O)OC1C=CC(OC(C)=O)C2C(=O)N(CCCN3CCN(c4ccccc4OC(C)C)CC3)C(=O)C12.Cl (centres unmarked) [Compound No. 73, 2-[3-{4-(2-Isopropoxyphenyl)piperazin-1-yl}propyl]-4,7-diacetoxy-3a,4,7,7a-tetrahydro-1H-isoindole-1,3(2H)-dione hydrochloride]",,192,,8.45,23,,,,176 to 177,,,
"CC(C)Oc1ccccc1N1CC[N+]([O-])(CCCN2C(=O)C3CC=CCC3C2=O)CC1 (centres unmarked) [compound 08, 2-[3-{4-(2-Isopropoxyphenyl)piperazin-1-yl, 1-N-oxide}propyl]-3a,4,7,7a-tetrahydro-1H-isoindole-1,3(2H)-dione]",1.02,4770,21.9,6.6,722,0.24,5.24,4.17,,,,
"CC(C)Oc1ccccc1[N+]1([O-])CC[N+]([O-])(CCCN2C(=O)C3CC=CCC3C2=O)CC1 (centres unmarked) [compound 09, 2-[3-{4-(2-Isopropoxyphenyl)piperazin-1-yl, 1,4-N,N-dioxide}propyl]-3a,4,7,7a-tetrahydro-1H-isoindole-1,3-(2H)-dione]",23.4,> 1000,100,1070,,3.3,14,7.08,,,,

# Continued, in another order:
Kb [1] [nM],Ki (α1B adrenoceptor) [nM],Kb (α1D adrenoceptor (aorta)) [nM],Ki (α1A adrenoceptor) [nM],α1B/α1A (α1A adrenoceptor),Selectivity α1B/α1A [2],Selectivity α1D/α1A [2],Kb [2] [nM],SMILES,melting point [°C],Uroselectivity Ratio IUP/MAP (conscious beagle dogs),Area Under Curve IUP (conscious beagle dogs; [3]),Area Under Curve MAP (conscious beagle dogs; [3])
11,34,1.58,0.24,142,18,2.6,0.603,"Cl.O=C1C2CCC(O)CC2C(=O)N1CCCN1CCN(c2ccccc2OCC(F)(F)F)CC1 (centres unmarked) [Compound No. 33, 2-[3-{4-(2-(2,2,2-Trifluoroethoxy)phenyl)piperazin-1-yl}propyl]-5-hydroxy-3a,4,5,6,7,7a-hexahydro-1H-isoindole-1,3(2H)-dione hydrochloride]",,,,
12.6,50,0.741,0.5,100,7.4,0.43,1.7,"Cl.O=C1C2CC=CCC2C(=O)N1CCCN1CCN(c2ccccc2OC2CCCC2)CC1 (centres unmarked) [Compound No. 43, 2-[3-{4-(2-Cyclopentyloxyphenyl)piperazin-1-yl}propyl]-3a,4,7,7a-tetrahydro-1H-isoindole-1,3(2H)-dione hydrochloride]",,,,
38,80,12,8.55,9,3.8,1.2,10,"Cl.O=C1CCCC(=O)N1CCCN1CCN(c2ccccc2O)CC1 [compound 01, 1-[4-(2-Hydroxyphenyl)piperazin-1-yl]-3-(2,6-dioxopiperidin-1-yl)propane hydrochloride]",,,,
1.29,27,0.0316,0.17,159,7.07,0.17,0.182,"Cl.O=C1C2CC=CCC2C(=O)N1CCCN1CCN(c2ccccc2OCC(F)(F)F)CC1 (centres unmarked) [compound 02, 2-[3-{4-(2-(2,2,2-Trifluoroethoxy)phenyl)piperazin-1-yl}propyl]-3a, 4,7,7a-tetrahydro-1H-isoindole-1,3(2H)-dione hydrochloride]",,,,
0.275,47,0.148,0.26,181,0.7,0.38,0.389,O=C1CCCC(=O)N1CCCN1CCN(c2ccccc2OCC(F)(F)F)CC1 [compound 03],,,,
15.8,106,2.29,0.56,189,13,1.9,1.23,"CC(C)Oc1ccccc1N1CCN(CC(O)CN2C(=O)C3CC=CCC3C2=O)CC1.Cl (centres unmarked) [compound 07, 2-[3-{4-(2-Isopropoxyphenyl)piperazin-1-yl}-2-hydroxypropyl]-3a,4,7,7a-tetrahydro-1H-isoindole-1,3(2H)-dione hydrochloride]",,,,
